# Measurements taken from patent US20240270762A1, “PENICILLIN-BINDING PROTEIN INHIBITORS” (priority 2021, published 2024).
# pIC50: −log10 of the molar value.
# Key:
# [1] = biological target: T1, PBP3 from Acinetobacter baumannii (ATCC 19606) (Acinetobacter baumannii, UniProt A0ABX6CK25); test: Bocillin-FL fluorescence polarization competition binding, A. baumannii PBP3; details: fluorescence polarization competition binding assay using Bocillin-FL; read-out: A. baumannii PBP3 Potency
# T1 sequence (A0ABX6CK25 64-610): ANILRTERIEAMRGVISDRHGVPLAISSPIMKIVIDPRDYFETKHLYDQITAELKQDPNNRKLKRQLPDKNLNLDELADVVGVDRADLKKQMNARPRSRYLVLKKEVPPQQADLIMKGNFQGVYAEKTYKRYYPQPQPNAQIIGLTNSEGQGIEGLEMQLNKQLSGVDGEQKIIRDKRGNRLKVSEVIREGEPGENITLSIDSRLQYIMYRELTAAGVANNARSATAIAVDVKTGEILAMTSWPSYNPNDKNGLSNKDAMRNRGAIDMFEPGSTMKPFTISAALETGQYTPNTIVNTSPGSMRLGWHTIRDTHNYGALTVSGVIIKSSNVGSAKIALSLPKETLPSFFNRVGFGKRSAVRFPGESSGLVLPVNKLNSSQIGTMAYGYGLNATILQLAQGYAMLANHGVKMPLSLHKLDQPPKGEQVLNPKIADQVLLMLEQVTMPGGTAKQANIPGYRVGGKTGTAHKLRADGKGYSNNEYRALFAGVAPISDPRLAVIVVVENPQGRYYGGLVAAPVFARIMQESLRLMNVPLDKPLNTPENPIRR
# Procedure, shortened: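 Purified PBP was preincubated with inhibitor (E. coli PBP3 1.5 μM, 30 min; P. aeruginosa PBP3 0.75 μM, A. baumannii PBP3 0.2 μM and PBP1a 1 μM, 15 min), then Bocillin-FL (0.1 μM; 0.05 μM for PBP1a) added and FP read up to 60 min. EC50 = 50% loss of bound probe.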
# P. aeruginosa ATCC 35151 = test: microbe, parasite or virus in culture; format: cell-based; details: Pseudomonas aeruginosa, ATCC35151, read-out: Minimum inhibitory concentration, P. aeruginosa ATCC 35151
# P. aeruginosa CDC-0095 = test: microbe, parasite or virus in culture; format: cell-based; details: Pseudomonas aeruginosa, CDC0095, read-out: Minimum inhibitory concentration, P. aeruginosa CDC-0095
# A. baumannii 1258916 = test: microbe, parasite or virus in culture; format: cell-based, Acinetobacter baumannii; details: Acinetobacter baumannii, 1258916, read-out: MIC, A. baumannii 1258916
# A. baumannii CDC-0045 = test: microbe, parasite or virus in culture; format: cell-based; details: Acinetobacter baumannii, CDC0045, read-out: MIC, A. baumannii CDC-0045
# [2] = test system: B. thailandensis ATCC 700388; test: microbe, parasite or virus in culture; format: cell-based; details: Burkholderia thailandensis, ATCC700388, read-out: Minimum inhibitory concentration (MIC), B. thailandensis ATCC 700388
# N. gonorrhoeae MS11 = test: Liquid broth MIC in Fastidious broth; details: Neisseria gonorrhoeae, MS11, read-out: Minimum Inhibitory Concentration (MIC), N. gonorrhoeae MS11
# N. gonorrhoeae WHO L = test: Liquid broth MIC in Fastidious broth; details: Neisseria gonorrhoeae, read-out: Minimum Inhibitory Concentration (MIC), N. gonorrhoeae WHO L
# N. gonorrhoeae WHO Q = test: Liquid broth MIC in Fastidious broth; details: Neisseria gonorrhoeae, read-out: Minimum Inhibitory Concentration (MIC), N. gonorrhoeae WHO Q
# N. gonorrhoeae CDC-0197 = test: Liquid broth MIC in Fastidious broth; details: Neisseria gonorrhoeae, CDC0197, read-out: Minimum Inhibitory Concentration (MIC), N. gonorrhoeae CDC-0197
SMILES,pIC50 [1],MIC (P. aeruginosa ATCC 35151) [µg/mL],MIC (P. aeruginosa CDC-0095) [µg/mL],MIC (A. baumannii 1258916) [µg/mL],MIC (A. baumannii CDC-0045) [µg/mL],MIC [2] [µg/mL],MIC (N. gonorrhoeae MS11) [µg/mL],MIC (N. gonorrhoeae WHO L) [µg/mL],MIC (N. gonorrhoeae WHO Q) [µg/mL],MIC (N. gonorrhoeae CDC-0197) [µg/mL]
"O=C(CN1CCN(C(=O)NC(C(=O)N[C@H]2Cc3ccc(F)c(C(=O)O)c3OB2O)c2cc(F)c(O)c(O)c2Cl)C(=O)C1=O)Nc1ccccc1 (stereo partly drawn) [Example 232, (3R)-3-(2-(2-chloro-5-fluoro-3,4-dihydroxyphenyl)-2-(2,3-dioxo-4-(2-oxo-2-(phenylamino)ethyl)piperazine-1-carboxamido)acetamido)-7-fluoro-2-hydroxy-3,4-dihydro-2H-benzo[e][1,2]oxaborinine-8-carboxylic acid]",> 5.00,< 1,2 to 4,2 to 4,8 to 16,< 1,16 to 32,> 64,> 64,> 64
"O=C(CN1CCN(C(=O)NC(C(=O)N[C@H]2Cc3ccc(F)c(C(=O)O)c3OB2O)c2cc(F)c(O)c(O)c2Cl)C(=O)C1=O)Nc1ccncc1 (stereo partly drawn) [Example 233, (3R)-3-(2-(2-chloro-5-fluoro-3,4-dihydroxyphenyl)-2-(2,3-dioxo-4-(2-oxo-2-(pyridin-4-ylamino)ethyl)piperazine-1-carboxamido)acetamido)-7-fluoro-2-hydroxy-3,4-dihydro-2H-benzo[e][1,2]oxaborinine-8-carboxylic acid]",> 5.00,< 1,2 to 4,< 1,2 to 4,2 to 4,16 to 32,> 64,16 to 32,16 to 32
"O=C(CN1CCN(C(=O)NC(C(=O)N[C@H]2Cc3ccc(F)c(C(=O)O)c3OB2O)c2cc(F)c(O)c(O)c2Cl)C(=O)C1=O)Nc1cccnc1 (stereo partly drawn) [Example 234, (3R)-3-(2-(2-chloro-5-fluoro-3,4-dihydroxyphenyl)-2-(2,3-dioxo-4-(2-oxo-2-(pyridin-3-ylamino)ethyl)piperazine-1-carboxamido)acetamido)-7-fluoro-2-hydroxy-3,4-dihydro-2H-benzo[e][1,2]oxaborinine-8-carboxylic acid]",> 5.00,< 1,32 to 64,< 1,< 1,8 to 16,16 to 32,> 64,16 to 32,16 to 32
"O=C(CN1CCN(C(=O)NC(C(=O)N[C@H]2Cc3ccc(F)c(C(=O)O)c3OB2O)c2cc(F)c(O)c(O)c2Cl)C(=O)C1=O)Nc1nccs1 (stereo partly drawn) [Example 235, (3R)-3-(2-(2-chloro-5-fluoro-3,4-dihydroxyphenyl)-2-(2,3-dioxo-4-(2-oxo-2-(thiazol-2-ylamino)ethyl)piperazine-1-carboxamido)acetamido)-7-fluoro-2-hydroxy-3,4-dihydro-2H-benzo[e][1,2]oxaborinine-8-carboxylic acid]",> 5.00,< 1,2 to 4,2 to 4,2 to 4,8 to 16,16 to 32,> 64,16 to 32,16 to 32
"O=C(CN1CCN(C(=O)NC(C(=O)N[C@H]2Cc3ccc(F)c(C(=O)O)c3OB2O)c2cc(F)c(O)c(O)c2Cl)C(=O)C1=O)NCc1cccc(O)c1 (stereo partly drawn) [Example 237, (3R)-3-(2-(2-chloro-5-fluoro-3,4-dihydroxyphenyl)-2-(4-(2-((3-hydroxybenzyl)amino)-2-oxoethyl)-2,3-dioxopiperazine-1-carboxamido)acetamido)-7-fluoro-2-hydroxy-3,4-dihydro-2H-benzo[e][1,2]oxaborinine-8-carboxylic acid]",> 5.00,< 1,2 to 4,2 to 4,8 to 16,8 to 16,16 to 32,> 64,> 64,16 to 32
